Results as given in patent US5227395A, “Anti-platelet aggregating agent” (Nisshin Flour Milling Co., Ltd., priority 1991, dated 1993).

System: platelet aggregation
Test: In vitro anti-platelet test: inhibition of arachidonic acid-induced platelet aggregation in platelet-rich plasma (Born's turbidimetric method)
Assay type: cell-based, male Japanese white rabbits
Conditions: Oryctolagus cuniculus, 5 min, rabbit PRP, 37° C., read-out: Percentage inhibition of platelet aggregation; for inhibition at 10 µg/mL: 10 μg/ml; for inhibition at 25 µg/mL: 25 μg/ml; for inhibition at 50 µg/mL: 50 μg/ml; for inhibition at 100 µg/mL: 100 μg/ml
Protocol: The anti-platelet aggregating activity of the compounds of the present invention was determined by Born's turbidimetric method (G.V.R. Born, Nature, No. 4832, Jun. 9, 1962, 927-929) using an aggregometer (NKK Hema Tracer 1, PAT-4M, NKK Inc. Japan).
PRP was prepared from male Japanese white rabbits weighing 2.3-4.1 kg. Blood was drawn into syringes containing 3.8% sodium citrate (1/10 volume) and centrifuged at 1000 r.p.m. for 10 min. at room temperature. Platelet poor plasma (PPP) was obtained from the supernatant fraction of the residual blood by centrifugation at 3000 r.p.m. for 10 min. The aggregation (%) was calculated against the turbidity of PPP, which was designated as 100%. 1.2. In vitro anti-platelet test
A 200 μl volume of PRP was placed in the cuvette of the aggregometer and incubated at 37° C. To the cuvette was added 25 μl of 10% methanol solution in physiological saline as a solvent or 25 μl of test drug solution dissolved in the solvent in a predetermined concentration (μg/ml) indicated in Table 2, which was stirred and incubated. 5 min. after, platelet aggregation was induced by the addition of 25 μl of 10^-2 M arachidonic acid. Changes in the percentage of aggregation was recorded on a multirecorder (T626-DS, NKK Inc., Japan). 1-(4' -Methoxybenzoyl)-2-pyrrolidinone (aniracetam) was used as a control compound.
2. Result The percentage inhibition (I) of platelet aggregation by a test drug was calculated from the following equation: […]
in which A is the percentage maximum aggregation for addition of the drug and B is the percentage maximum aggregation for no addition of the drug.

## COc1ccc(OC(=O)N2CCCC2=O)cc1 [Compound No. 4, 1-(4'-Methoxyphenoxycarbonyl)-2-pyrrolidinone]
  inhibition at 10 µg/mL: 51.1%
  inhibition at 25 µg/mL: 72.5%
  inhibition at 50 µg/mL: 95.5%
  inhibition at 100 µg/mL: 98.2%

## Cc1ccccc1OC(=O)N1CCCC1=O [Compound No. 5, 1-(2'-Methylphenoxycarbonyl)-2-pyrrolidinone]
  inhibition at 10 µg/mL: 5%
  inhibition at 25 µg/mL: 35.8%
  inhibition at 50 µg/mL: 50.6%
  inhibition at 100 µg/mL: 92.3%

## COc1ccccc1OC(=O)N1CCCC1=O [Compound No. 2, 1-(2'-Methoxyphenoxycarbonyl)-2-pyrrolidinone]
  inhibition at 10 µg/mL: 40.9%
  inhibition at 25 µg/mL: 69.8%
  inhibition at 50 µg/mL: 81.6%
  inhibition at 100 µg/mL: 96.2%

## Cc1cccc(OC(=O)N2CCCC2=O)c1 [Compound No. 6, 1-(3'-Methylphenoxycarbonyl)-2-pyrrolidinone]
  inhibition at 50 µg/mL: 4.7%
  inhibition at 100 µg/mL: 39.7%

## Cc1ccc(OC(=O)N2CCCC2=O)cc1 [Compound No. 7, 1-(4'-Methylphenoxycarbonyl)-2-pyrrolidinone]
  inhibition at 10 µg/mL: 5.8%
  inhibition at 25 µg/mL: 31%
  inhibition at 50 µg/mL: 70.6%
  inhibition at 100 µg/mL: 97.7%

## COc1ccc(C(=O)N2CCCC2=O)cc1 [Aniracetam, 1-(4' -Methoxybenzoyl)-2-pyrrolidinone, reference compound]
  inhibition at 50 µg/mL: 0.4%
  inhibition at 100 µg/mL: 4.1%

## COc1cccc(OC)c1OC(=O)N1CCCC1=O [Compound No. 18, 1-(2',6'-Dimethoxyphenoxycarbonyl)-2-pyrrolidinone]
  inhibition at 10 µg/mL: 26%
  inhibition at 25 µg/mL: 64.8%
  inhibition at 50 µg/mL: 90.9%
  inhibition at 100 µg/mL: 96.4%

## COc1cccc(OC(=O)N2CCCC2=O)c1 [Compound No. 3, 1-(3'-Methoxyphenoxycarbonyl)-2-pyrrolidinone]
  inhibition at 50 µg/mL: 8.5%
  inhibition at 100 µg/mL: 28.6%
